According to patent US20020183256A1, “Cytostatic-integrin conjugates having specifically cleavable linking units” (priority 2000, published 2002):
Where two headings read alike, the source gives them in different places. *1 amine or outer side, *2 acyl side, *3 side chain or, on linkers, in order; H or OH if unused. Where a SMILES comes first, the peptide text is derived from it. [ ]: non-standard residue; d: D form. The star is where a group is joined. Camptothecin(20R,20-O) = CC[C@]1(O*)C(=O)OCc2c1cc1n(c2=O)Cc2cc3ccccc3nc2-1; X2 = CCCNC(=O)Nc1cccc(S(=O)(=O)Nc2cccc(C(CC(=O)O)NC(=O)Nc3ccc(N*)cc3)c2)c1; X3 = O=C(Nc1cccc(-c2ccc(S(=O)(=O)*)cc2)c1)Nc1nc2ccccc2[nH]1; X1 = CCCNC(=O)Nc1cccc(S(=O)(=O)Nc2cccc(C(CC(=O)O)N*)c2)c1; NH(1,4-C6H4)NHCS = S=C(Nc1ccc(N[*:1])cc1)[*:2]; X4 = O=C(O)CC(N[*:1])c1cccc(NC(=S)[*:2])c1; CO = O=C([*:1])[*:2]; GABA = NCCCC(=O)O

Experiments:
[1] = system: HT29; experiment: Growth inhibition test (MTT), cytotoxic action on tumour cell lines; type: cell-based, human
Experimental: (§1) The human large intestine cell lines SW 480 and HT29 (ATCC No. CCL 228 and HTB38 and the mouse melanoma cell line B16F10 (CRL 6475) were grown to confluence in Roux dishes in RPMI 1640 medium with addition of 10% FCS. They were then trypsinized and taken up in RPMI plus 10% FCS to a cell count of 50,000 cells or, for B16F10, 20,000 cells per ml. 100 μl of cell suspension/well were added to a 96 microwell plate and incubated at 37° C. for 1 day in a CO2 incubator. A further 100 μl of RPMI medium and 1 μl of DMSO were then added with the test substances. The growth was checked after day 6. For this, 25 μl of MTT solution (3-(4,5-dimethylthiazol-2-yl)-2,5-diphenyltetrazolium bromide) was added to each well at a starting concentration of 5 mg/ml of H2O. The plate was incubated at 37° C. for 5 hours in a CO2 incubator. The medium was then aspirated and 100 μl of i-propanol/well were added. After shaking with 100 μl of H2O for 30 min, the extinction was measured at 595 nm using a Multiplate Reader (BIO-RAD) 3550-UV).
(§2) The cytostatic action is indicated in Table 2 as an IC50 value, in each case for the individual cell lines.

[2] = system: SW 480; experiment: as above; type: cell-based, human
Experimental: as §1, §2

[3] = system: B16F10; experiment: as above; type: cell-based, mouse
Experimental: as §1, §2

[4] = molecular target: T1, MMP-2 (Homo sapiens, UniProt P08253); experiment: Cleavage of conjugates by MMP-2 in buffer (HPLC); type: biochemical; conditions: after 6 h incubation with MMP-2; buffer pH 7.5
T1 construct: purchased Calbiochem
T1 sequence (P08253 110-660): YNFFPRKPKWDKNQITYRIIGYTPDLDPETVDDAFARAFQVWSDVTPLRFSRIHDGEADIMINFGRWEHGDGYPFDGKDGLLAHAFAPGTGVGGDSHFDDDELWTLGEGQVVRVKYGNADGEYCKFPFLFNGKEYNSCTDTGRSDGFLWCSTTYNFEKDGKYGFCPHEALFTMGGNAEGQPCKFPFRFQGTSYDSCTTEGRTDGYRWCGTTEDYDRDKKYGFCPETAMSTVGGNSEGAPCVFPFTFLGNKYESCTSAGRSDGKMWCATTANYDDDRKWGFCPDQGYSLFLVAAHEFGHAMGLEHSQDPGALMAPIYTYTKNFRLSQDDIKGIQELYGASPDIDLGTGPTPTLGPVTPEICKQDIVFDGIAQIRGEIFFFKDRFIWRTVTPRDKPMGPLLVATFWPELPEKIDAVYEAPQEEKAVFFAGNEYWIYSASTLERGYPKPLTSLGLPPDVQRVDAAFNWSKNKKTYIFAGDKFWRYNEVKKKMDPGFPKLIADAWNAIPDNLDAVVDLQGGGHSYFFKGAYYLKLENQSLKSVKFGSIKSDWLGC
Experimental: 2.5 μl MMP-2 (Calbiochem) with a specific activity of 60 μU/μl are incubated with 10 nM of the conjugates exemplified in the example series 1-25 in 1 ml of a medium consisting of 50 mM Tris-HCl pH 7.5, 0.2 M NaCl, 10 mM CaCL2*2H2O and 0.05% Brij 35. The enzyme mediated cleavage of the conjugates is detected by HPLC analysis using an RP18 (5 μM) column with 70% HClO4/water (0.4% v/v) as eluent A and acentonitrile as eluent B (UV detection at […]). The efficiency of the cleavage is assessed by comparing the peak areas of the intact conjugate (starting material) and the cleavage product (tripeptide conjugate of camptothecin) after 6 h and 24 h incubation (cf. Table 5).

[5] = molecular target: T2, αvβ3 receptor (Homo sapiens, UniProt P05106+P06756); experiment: αvβ3 binding test (echistatin displacement, WGA SPA beads); conditions: αvβ3 from human A375 cells
T2 construct: αvβ3 from human A375 cells was purified; endogenous in cells; host or cells: human A375 cells (receptor purified from the cells, analogous to Wong et al. 1996)
T2 sequence (P06756 31-889 limits assumed): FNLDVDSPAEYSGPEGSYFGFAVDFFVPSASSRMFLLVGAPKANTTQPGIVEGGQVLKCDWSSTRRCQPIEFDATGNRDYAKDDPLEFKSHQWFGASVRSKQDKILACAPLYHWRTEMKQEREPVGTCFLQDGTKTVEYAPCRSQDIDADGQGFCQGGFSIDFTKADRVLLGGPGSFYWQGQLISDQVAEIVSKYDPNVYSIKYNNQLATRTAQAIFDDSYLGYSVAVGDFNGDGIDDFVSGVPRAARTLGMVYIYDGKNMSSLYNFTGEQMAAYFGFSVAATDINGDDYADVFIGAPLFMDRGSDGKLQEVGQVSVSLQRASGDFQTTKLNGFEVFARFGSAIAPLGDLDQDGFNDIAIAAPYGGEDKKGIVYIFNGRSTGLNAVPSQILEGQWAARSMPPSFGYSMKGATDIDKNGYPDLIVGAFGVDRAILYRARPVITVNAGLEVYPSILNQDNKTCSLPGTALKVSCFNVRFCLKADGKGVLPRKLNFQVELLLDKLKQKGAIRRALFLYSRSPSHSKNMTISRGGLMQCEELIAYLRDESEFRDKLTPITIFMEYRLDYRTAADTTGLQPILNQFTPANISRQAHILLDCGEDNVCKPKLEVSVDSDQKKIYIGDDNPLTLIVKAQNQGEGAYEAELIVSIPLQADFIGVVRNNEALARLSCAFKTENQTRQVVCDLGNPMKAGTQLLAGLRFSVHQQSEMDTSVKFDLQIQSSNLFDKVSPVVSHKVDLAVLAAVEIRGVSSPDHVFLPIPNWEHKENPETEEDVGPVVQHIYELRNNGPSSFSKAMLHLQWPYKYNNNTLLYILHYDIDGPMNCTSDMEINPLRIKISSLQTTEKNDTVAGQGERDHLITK
T2 sequence (P06756 891-1048 partner limits assumed): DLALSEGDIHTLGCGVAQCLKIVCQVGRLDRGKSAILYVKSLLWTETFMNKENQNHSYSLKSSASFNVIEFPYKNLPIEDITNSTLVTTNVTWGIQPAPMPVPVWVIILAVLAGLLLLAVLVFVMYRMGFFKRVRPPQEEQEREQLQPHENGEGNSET
T2 sequence (P05106 27-788): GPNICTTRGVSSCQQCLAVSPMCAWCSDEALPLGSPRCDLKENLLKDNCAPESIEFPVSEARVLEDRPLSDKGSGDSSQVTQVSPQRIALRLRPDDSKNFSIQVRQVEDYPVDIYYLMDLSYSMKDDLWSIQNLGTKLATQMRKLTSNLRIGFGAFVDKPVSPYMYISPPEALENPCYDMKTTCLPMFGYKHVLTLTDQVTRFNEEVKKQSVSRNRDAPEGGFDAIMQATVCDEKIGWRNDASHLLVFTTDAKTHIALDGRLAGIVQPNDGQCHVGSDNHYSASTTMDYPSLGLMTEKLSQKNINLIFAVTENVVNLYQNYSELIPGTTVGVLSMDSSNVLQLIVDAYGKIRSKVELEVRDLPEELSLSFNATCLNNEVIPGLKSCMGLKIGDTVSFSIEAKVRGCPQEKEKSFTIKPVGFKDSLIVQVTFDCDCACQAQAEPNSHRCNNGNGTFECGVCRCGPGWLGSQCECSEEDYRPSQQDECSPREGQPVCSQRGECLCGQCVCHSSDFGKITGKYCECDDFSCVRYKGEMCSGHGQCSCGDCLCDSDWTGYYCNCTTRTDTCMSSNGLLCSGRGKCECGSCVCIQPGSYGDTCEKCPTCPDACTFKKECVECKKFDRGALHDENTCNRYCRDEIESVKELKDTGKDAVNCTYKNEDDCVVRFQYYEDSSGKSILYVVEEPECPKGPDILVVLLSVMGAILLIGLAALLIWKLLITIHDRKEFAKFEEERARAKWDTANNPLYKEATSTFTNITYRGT
Experimental: αvβ3 from human A375 cells was purified analogously to a procedure which was described by Wong et al. (Molecular Pharmacology, 50, 529-537 (1996)). In each case, 10 μl of αvβ3 (5 ng) in TBS pH 7.6, 2 mM CaCl2, 1 mM MgCl2, 1% n-octylglucopyranoside (Sigma); 10 μl of test substance in TBS pH 7.6, 0.1% DMSO and 45 μl of TBS pH 7.6, 2 mM CaCl2, 1 mM MgCl2, 1 mM MnCl2 were incubated at room temperature for 1 h. In each case, 25 μl of WGA SPA beads (Amersham, 4 mg/ml) and 10 μl of echistatin (0.1 μCi, Amersham, chloramine-T labelled) were then added. After 16 hours at room temperature, the samples were measured in a scintillation measuring apparatus (Wallac 1450).

[6] = HT29, MTT after day 6, read-out: IC50 values of the cytotoxic action on tumour cell lines, HT29
[7] = SW480, MTT after day 6, read-out: IC50 values of the cytotoxic action on tumour cell lines, SW480
[8] = B16F10, MTT after day 6, read-out: IC50 values of the cytotoxic action on tumour cell lines, B16F10
[9] = IC50 values of the binding to the αvβ3 receptor

Row | Structure (SMILES) | IC50 [1, 6] | IC50 [2, 7] | IC50 [3, 8] | MMP-2 mediated cleavage Peak area product/educt x100 [4] | IC50 [5, 9] | IC50 ([1]; human, 6 days) | IC50 ([2]; human, 6 days) | IC50 ([3]; mouse, 6 days) | IC50 ([5]; read-out: IC50 values of the binding to the αvβ3 receptor)
1 | CCCNC(=O)Nc1cccc(S(=O)(=O)Nc2cccc(C(CC(=O)O)NC(=O)Nc3ccc(NC(=O)NCCCC(=O)N4CCC[C@@H]4C(=O)N[C@@H](CC(C)C)C(=O)NCC(=O)N[C@H](CC(C)C)C(=O)N[C@H](CC(N)=O)C(=O)N[C@@H](C(=O)O[C@@]4(CC)C(=O)OCc5c4cc4n(c5=O)Cc5cc6ccccc6nc5-4)C(C)C)cc3)c2)c1 (stereo partly drawn) [Example 18] ({X2-CO-GABA}-[dP]LG[dL][dN][dV]-{Camptothecin(20R,20-O)}) | 25 nM | 35 nM | 70 nM | 51 | 20 nM | – | – | – | –
2 | CCCNC(=O)Nc1cccc(S(=O)(=O)Nc2cccc(C(CC(=O)O)NC(=O)Nc3ccc(NC(=S)N4CCC[C@@H]4C(=O)N[C@@H](CC(C)C)C(=O)NCC(=O)N[C@H](CC(C)C)C(=O)N[C@H](CC(N)=O)C(=O)N[C@@H](C(=O)O[C@@]4(CC)C(=O)OCc5c4cc4n(c5=O)Cc5cc6ccccc6nc5-4)C(C)C)cc3)c2)c1 (stereo partly drawn) [Example 9] | – | – | – | – | – | 80 nM | 60 nM | 400 nM | 30 nM
3 | CCCNC(=O)Nc1cccc(S(=O)(=O)Nc2cccc(C(CC(=O)O)NC(=O)Nc3ccc(NC(=S)N4CCC[C@@H]4C(=O)N[C@@H](CC(C)C)C(=O)NCC(=O)N[C@H](CC(C)C)C(=O)N[C@H](CSC)C(=O)N[C@@H](C(=O)O[C@@]4(CC)C(=O)OCc5c4cc4n(c5=O)Cc5cc6ccccc6nc5-4)C(C)C)cc3)c2)c1 (stereo partly drawn) [Example 14] ({X1-CO}-[NH(1,4-C6H4)NHCS][dP]LG[dL][dC](Me)[dV]-{Camptothecin(20R,20-O)}) | 60 nM | 50 nM | 400 nM | 5 | 70 nM | – | – | – | –
4 | CC[C@]1(OC(=O)[C@H](NC(=O)[C@@H](Cc2c[nH]cn2)NC(=O)[C@@H](CC(C)C)NC(=O)CNC(=O)[C@H](CC(C)C)NC(=O)[C@H]2CCCN2C(=S)Nc2cccc(C(CC(=O)O)NS(=O)(=O)c3ccc(-c4cccc(NC(=O)Nc5nc6ccccc6[nH]5)c4)cc3)c2)C(C)C)C(=O)OCc2c1cc1n(c2=O)Cc2cc3ccccc3nc2-1 (stereo partly drawn) [Example 4] (X3-[X4][dP]LG[dL][dH][dV]-{Camptothecin(20R,20-O)}) | 90 nM | 70 nM | 400 nM | 6 | 150 nM | – | – | – | –
5 | CCCNC(=O)Nc1cccc(S(=O)(=O)Nc2cccc(C(CC(=O)O)NC(=O)Nc3ccc(NC(=O)N4CCC[C@@H]4C(=O)N[C@@H](CC(C)C)C(=O)NCC(=O)N[C@H](CC(C)C)C(=O)N[C@H](Cc4c[nH]c5ccccc45)C(=O)N[C@@H](C(=O)O[C@@]4(CC)C(=O)OCc5c4cc4n(c5=O)Cc5cc6ccccc6nc5-4)C(C)C)cc3)c2)c1 (stereo partly drawn) [Example 15] ({X2-CO}-[dP]LG[dL][dW][dV]-{Camptothecin(20R,20-O)}) | 500 nM | 1500 nM | 8000 nM | – | 500 nM | – | – | – | –
6 | CCCNC(=O)Nc1cccc(S(=O)(=O)Nc2cccc(C(CC(=O)O)NC(=O)Nc3ccc(NC(=S)N4CCC[C@@H]4C(=O)N[C@@H](CC(C)C)C(=O)NCC(=O)N[C@H](CC(C)C)C(=O)N[C@H](CSC)C(=O)N[C@@H](C(=O)O[C@@]4(CC)C(=O)OCc5c4cc4n(c5=O)Cc5cc6ccccc6nc5-4)C(C)C)cc3)c2)c1 (stereo partly drawn) [Example 13] ({X1-CO}-[NH(1,4-C6H4)NHCS][dP]LG[dL][dC](Me)[dV]-{Camptothecin(20R,20-O)}) | 100 nM | 80 nM | 400 nM | – | 50 nM | – | – | – | –
